Where a name gives a salt, the structure may show the parent alone. Read-outs that look alike come from different tables or passages of the source. Starred links: 1 amine or outer side, 2 acyl side, 3 side chain; linkers in the order of their positions; H or OH if unused. Positions of bridges follow the written chain, without caps; N, C: chain ends. Non-standard residues stand in square brackets, D forms with d. Residues, ends and D or L forms follow the SMILES beside them. *: point of attachment. DOTA = O=C(O)CN1CCN(CC(=O)O)CCN(CC(=O)*)CCN(CC(=O)O)CC1; Trp(5-OH) = N[C@@H](Cc1c[nH]c2ccc(O)cc12)C(=O)O; NMePhe(4-F) = CN[C@@H](Cc1ccc(F)cc1)C(=O)O; X2 = O=C([C@H](Cc1ccc(O)nc1)N[*:1])[*:2]; NMehPhe = CN[C@@H](CCc1ccccc1)C(=O)O; Adipoyl = O=C(CCCCC(=O)[*:2])[*:1]; NMeAhp(2) = CCCCC[C@H](NC)C(=O)O; Aad = N[C@@H](CCCC(=O)O)C(=O)O; Gly(cPr) = N[C@H](C(=O)O)C1CC1; NMeK = CN[C@@H](CCCCN)C(=O)O; NMeDap = CN[C@@H](CN)C(=O)O; NMeS = CN[C@@H](CO)C(=O)O
What was measured:
Type in all cases: binding
human HER2 (23-652) [1] = target: T1, human HER2 (23-652) (Homo sapiens, UniProt P04626); experiment: TR-FRET competition assay for peptide potency, human HER2; design: towards human HER2 (23-652) and mouse HER2 (23-653); made in house; host or cells: mammalian cells
mouse HER2 (23-653) [2] = target: T2, mouse HER2 (23-653) (Mus musculus, UniProt P70424); experiment: Surface plasmon resonance (SPR) for assessment of peptide affinity, mouse HER2; design: mouse HER2 (23-653) using a Cy5 labeled peptide as a probe; made in house
Excerpt: Each protein was immobilized either onto a SA sensorchip (Cytiva, BR-1005-31) or CM5 sensorchip (Cytiva, BR-1005-30) to a density of 800-2000 RU.

mouse HER2 (23-653) [3] = target: T2, mouse HER2 (23-653); experiment: TR-FRET competition assay for peptide potency, mouse HER2; design: mouse HER2 (23-653) using a Cy5 labeled peptide as a probe; made in house; host or cells: mammalian cells; details: 0.1 nM mouse HER2, 24 h incubation
human HER2 (23-652) [4] = target: T1, human HER2 (23-652); experiment: Surface plasmon resonance (SPR) for assessment of peptide affinity, human HER2; design: towards human HER2 (23-652) and mouse HER2 (23-653); made in house
Method in brief: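 Binding kinetics fitted from sensorgrams with 280 s peptide association then 3000 s dissociation (30 uL/min), using HER2 (23-652) either directly immobilized (SA/CM5) or anti-Fc-captured; 3 M magnesium chloride used for regeneration.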

[5] = SPR, mouse HER2 extracellular domain, 25° C., 1:1 binding model, read-out: moHER2-SPR-ONC KD
[6] = TR-FRET competition with Cy5 labeled peptide probe, read-out: moHER2 TR-FRET IC50
[7] = SPR, human HER2 extracellular domain, 25° C., 1:1 binding model, read-out: huHER2-SPR-ONC KD

Row | Compound | IC50 (human HER2 (23-652) [1]; huHER2 TR-FRET IC50, TR-FRET competition with Cy5 labeled peptide probe, 0.1 nM human HER2, 24 h incubation) | Kd (mouse HER2 (23-653) [2]) | IC50 (mouse HER2 (23-653) [3]; moHER2 TR-FRET IC50, TR-FRET competition with Cy5 labeled peptide probe) | Kd (human HER2 (23-652) [4]) | IC50 (human HER2 (23-652) [1]; read-out: huHER2 TR-FRET IC50) | Kd (mouse HER2 (23-653) [2]; [5]) | IC50 (mouse HER2 (23-653) [3]; [6]) | Kd (human HER2 (23-652) [4]; [7]) | IC50 (human HER2 (23-652) [1]; TR-FRET competition with Cy5 labeled peptide probe, 0.1 nM human HER2, 24 h incubation, read-out: huHER2 TR-FRET IC50)
1 | COCCOCCOCCOCCOCCOCCOCCOCCOCCOCCOCCOCCC(=O)N[C@H]1CCCC(=O)NC[C@@H](C(=O)N(C)[C@@H](Cc2ccc(F)cc2)C(=O)N[C@@H](CCCCNC(=O)c2ccc([N+](C)(C)C)nc2)C(N)=O)N(C)C(=O)[C@H](C2CC2)NC(=O)[C@H](Cc2c[nH]c3ccccc23)NC(=O)[C@H](Cc2c[nH]c3ccc(O)cc23)NC(=O)[C@H](CCCCNC(C)=O)N(C)C(=O)[C@H](CCc2ccccc2)N(C)C(=O)[C@H](CO)NC(=O)[C@H](Cc2ccc(O)cc2)NC1=O [Example F4, TFA salt] | < 0.1 nM | 0.1 nM | 0.3 nM | < 0.1 nM |  |  |  |  | 
2 | CC(=O)NCCCC[C@H]1C(=O)N[C@@H](Cc2c[nH]c3ccc(O)cc23)C(=O)N[C@@H](Cc2c[nH]c3ccccc23)C(=O)N[C@@H](C2CC2)C(=O)N(C)[C@H](C(=O)N(C)[C@@H](Cc2ccc(F)cc2)C(=O)N2CCC[C@H]2C(N)=O)CNC(=O)CCC[C@H](NC(C)=O)C(=O)N[C@@H](Cc2ccc(O)cc2)C(=O)N[C@@H](CO)C(=O)N(C)[C@@H](CCc2ccccc2)C(=O)N1C [Example A2, (3S,6S,9S,12S,15S,18S,21S,24S,27S)-9-((1H-indol-3-yl)methyl)-27-acetamido-15-(4-acetamidobutyl)-N-((S)-1-((S)-2-carbamoylpyrrolidin-1-yl)-3-(4-fluorophenyl)-1-oxopropan-2-yl)-6-cyclopropyl-12-((5-hydroxy-1H-indol-3-yl)methyl)-24-(4-hydroxybenzyl)-21-(hydroxymethyl)-N,4,16,19-tetramethyl-5,8,11,14,17,20,23,26,31-nonaoxo-18-phenethyl-1,4,7,10,13,16,19,22,25-nonaazacyclohentriacontane-3-carboxamide] |  |  |  |  | 0.3 nM | 0.2 nM | 0.3 nM | 0.4 nM | 
3 | CCCCC[C@@H](C(N)=O)N(C)C(=O)[C@@H]1CNC(=O)CCC[C@H](NC(C)=O)C(=O)N[C@@H](Cc2ccc(O)cc2)C(=O)N[C@@H](CO)C(=O)N(C)[C@@H](CCc2ccccc2)C(=O)N(C)[C@@H](CCCCNC(C)=O)C(=O)N[C@@H](Cc2c[nH]c3ccc(O)cc23)C(=O)N[C@@H](Cc2c[nH]c3ccccc23)C(=O)N[C@@H](C2CC2)C(=O)N1C [Example A15, (3S,6S,9S,12S,15S,18S,21S,24S,27S)-9-((1H-indol-3-yl)methyl)-27-acetamido-15-(4-acetamidobutyl)-N-((S)-1-amino-1-oxoheptan-2-yl)-6-cyclopropyl-12-((5-hydroxy-1H-indol-3-yl)methyl)-24-(4-hydroxybenzyl)-21-(hydroxymethyl)-N,4,16,19-tetramethyl-5,8,11,14,17,20,23,26,31-nonaoxo-18-phenethyl-1,4,7,10,13,16,19,22,25-nonaazacyclohentriacontane-3-carboxamide] (Ac-[Aad]YS[NMehPhe][NMeK](Ac)[Trp(5-OH)]W[Gly(cPr)][NMeDap][NMeAhp(2)]-NH2; lactam 1-9) |  |  |  |  | 27 nM | 24 nM | 55 nM | 24 nM | 
4 | CC(=O)NCCCC[C@H]1C(=O)N[C@@H](Cc2c[nH]c3ccc(O)cc23)C(=O)N[C@H](Cc2c[nH]c3ccccc23)C(=O)N[C@@H](C2CC2)C(=O)N(C)[C@H](C(=O)N(C)[C@@H](Cc2ccc(F)cc2)C(=O)N[C@@H](CCCCNC(=O)CN2CCN(CC(=O)O)CCN(CC(=O)O)CCN(CC(=O)O)CC2)C(N)=O)CNC(=O)CCC[C@H](NC(C)=O)C(=O)N[C@@H](Cc2ccc(O)cc2)C(=O)N[C@@H](CO)C(=O)N(C)[C@@H](CCc2ccccc2)C(=O)N1C [Example B9] |  |  |  |  | > 1000 nM | > 6000 nM | > 1000 nM | 5110 nM | 
5 | CC(=O)NCCCC[C@H]1C(=O)N[C@@H](Cc2c[nH]c3ccc(O)cc23)C(=O)N[C@@H](C)C(=O)N[C@@H](C2CC2)C(=O)N(C)[C@H](C(=O)N(C)[C@@H](Cc2ccc(F)cc2)C(=O)N[C@@H](CCCCNC(=O)CN2CCN(CC(=O)O)CCN(CC(=O)O)CCN(CC(=O)O)CC2)C(N)=O)CNC(=O)CCC[C@H](NC(C)=O)C(=O)N[C@@H](Cc2ccc(O)cc2)C(=O)N[C@@H](CO)C(=O)N(C)[C@@H](CCc2ccccc2)C(=O)N1C [Example B3] (Ac-[Aad]YS[NMehPhe][NMeK](Ac)[Trp(5-OH)]A[Gly(cPr)][NMeDap][NMePhe(4-F)]K(DOTA)-NH2; lactam 1-9) |  |  |  |  | > 1000 nM | > 6000 nM | > 1000 nM | > 6000 nM | 
6 | CC(=O)N[C@H]1CCC(=O)NC[C@@H](C(=O)N(C)[C@@H](Cc2ccc(F)cc2)C(N)=O)N(C)C(=O)[C@H](C2CC2)NC(=O)[C@H](Cc2c[nH]c3ccccc23)NC(=O)[C@H](Cc2c[nH]c3ccc(O)cc23)NC(=O)[C@H](CO)N(C)C(=O)[C@H](CCc2ccccc2)N(C)C(=O)[C@H](CO)NC(=O)[C@H](Cc2ccc(O)nc2)NC1=O [Example A1, (3S,6S,9S,12S,15S,18S,21S,24S,27S)-9-((1H-indol-3-yl)methyl)-27-acetamido-N—((S)-1-amino-3-(4-fluorophenyl)-1-oxopropan-2-yl)-6-cyclopropyl-12-((5-hydroxy-1H-indol-3-yl)methyl)-15,21-bis(hydroxymethyl)-24-((6-hydroxypyridin-3-yl)methyl)-N,4,16,19-tetramethyl-5,8,11,14,17,20,23,26,30-nonaoxo-18-phenethyl-1,4,7,10,13,16,19,22,25-nonaazacyclotriacontane-3-carboxamide] (Ac-E[X2]S[NMehPhe][NMeS][Trp(5-OH)]W[Gly(cPr)][NMeDap][NMePhe(4-F)]-NH2; lactam 1-9) |  |  |  |  | 111 nM | 98 nM | 224 nM | 97 nM | 
7 | CC(=O)NCCCC[C@H]1C(=O)N[C@@H](Cc2c[nH]c3ccc(O)cc23)C(=O)N[C@@H](Cc2c[nH]c3ccccc23)C(=O)N[C@@H](C2CC2)C(=O)N(C)[C@H](C(=O)N(C)[C@@H](Cc2ccc(F)cc2)C(=O)N[C@@H](CCCCNC(=O)CN2CCN(CC(=O)O)CCN(CC(=O)O)CCN(CC(=O)O)CC2)C(N)=O)CNC(=O)CCCCC(=O)N[C@@H](Cc2ccc(O)cc2)C(=O)N[C@@H](CO)C(=O)N(C)[C@@H](CCc2ccccc2)C(=O)N1C [Example C14] (YS[NMehPhe][NMeK](Ac)[Trp(5-OH)]W[Gly(cPr)][NMeDap][NMePhe(4-F)]K(DOTA)-NH2; linker N-8 via Adipoyl) |  |  |  |  |  | 0.2 nM | 0.3 nM | < 0.1 nM | < 0.1 nM
8 | CC(=O)NCCCC[C@H]1C(=O)N[C@@H](Cc2c[nH]c3ccc(O)cc23)C(=O)N[C@@H](Cc2c[nH]c3ccccc23)C(=O)N[C@@H](C2CC2)C(=O)N(C)[C@H](C(=O)N(C)[C@@H](Cc2ccc(F)cc2)C(N)=O)CNC(=O)CCC[C@H](NC(C)=O)C(=O)N[C@@H](Cc2ccc(O)cc2)C(=O)N[C@@H](CO)C(=O)N(C)[C@@H](CCc2ccccc2)C(=O)N1C [Example A5, (3S,6S,9S,12S,15S,18S,21S,24S,27S)-9-((1H-indol-3-yl)methyl)-27-acetamido-15-(4-acetamidobutyl)-N-((S)-1-amino-3-(4-fluorophenyl)-1-oxopropan-2-yl)-6-cyclopropyl-12-((5-hydroxy-1H-indol-3-yl)methyl)-24-(4-hydroxybenzyl)-21-(hydroxymethyl)-N,4,16,19-tetramethyl-5,8,11,14,17,20,23,26,31-nonaoxo-18-phenethyl-1,4,7,10,13,16,19,22,25-nonaazacyclohentriacontane-3-carboxamide] (Ac-[Aad]YS[NMehPhe][NMeK](Ac)[Trp(5-OH)]W[Gly(cPr)][NMeDap][NMePhe(4-F)]-NH2; lactam 1-9) |  |  |  |  | 0.4 nM | 0.6 nM | 0.8 nM | 0.5 nM | 

From patent publication US20250332300A1 (priority 2024, published 2025)
